Results on 15 compounds are retold here after US20140018371A1, “Modulators Of The GPR119 Receptor And The Treatment Of Disorders Related Thereto” (ARENA PHARMACEUTICALS, INC., priority 2011, published 2014).

The target in one experiment is T1, hGPR119 (Homo sapiens, UniProt Q8TDV5).
T1 construct: expressed in transfected cells
T1 sequence (Q8TDV5 2-335 limits assumed): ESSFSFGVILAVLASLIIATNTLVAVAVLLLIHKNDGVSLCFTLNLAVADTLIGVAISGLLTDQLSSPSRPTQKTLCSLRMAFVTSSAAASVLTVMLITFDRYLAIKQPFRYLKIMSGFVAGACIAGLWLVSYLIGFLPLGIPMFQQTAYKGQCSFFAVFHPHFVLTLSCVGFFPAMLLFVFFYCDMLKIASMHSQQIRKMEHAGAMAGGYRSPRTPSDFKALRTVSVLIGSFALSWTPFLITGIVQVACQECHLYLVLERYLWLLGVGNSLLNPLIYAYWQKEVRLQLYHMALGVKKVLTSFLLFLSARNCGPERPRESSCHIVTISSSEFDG
Briefly: HTRF cAMP assay in CHO-K1 cells stably expressing the GPR119 receptor. It counts as cell-based. As to the method:
GPR119 agonists were evaluated in an HTRF® cAMP detection assay according to the manufacturer's instructions (Cisbio, cAMP Dynamic 2 Assay Kit; #62AM4PEJ) using CHO-K1 cells stably expressing the GPR119 receptor. Briefly, CHO-K1 cells were transduced with a lentiviral vector encoding the nucleotide sequence of GPR119 (NCBI mRNA and protein reference sequences: NM_178471.2 & NP_848566, (GPR119 has also been referred to as Glucose-Dependent Insulinotropic Receptor (GDIR)). The N-terminus of the GPR119 nucleotide sequence was modified to replace the first, methionine-coding codon with a nucleotide sequence coding for a standard, nine amino acid, hemagglutinin tag. Following transduction, cells expressing the GPR119 receptor were isolated and a single clone was isolated following standard dilution-cloning procedures. On the day of the assay, cultured CHO-GPR119 cells were harvested, suspended in assay buffer and plated into 384-well assay plates (PerkinElmer Proxiplate #6008280) at a density of 2,000 cells per well. A cAMP standard curve was added to each plate. Test compounds were solubilized in DMSO, serially diluted in DMSO and then diluted in assay buffer before adding to the cells. Test compounds were evaluated in triplicate, using 10-point, 5-fold serial dilutions starting at 10 μM. The final DMSO concentration in the assay was 0.5%. Compounds and cells were incubated for 1 h at room temperature and then detection reagents were added to each well (cAMP-D2 in cell lysis buffer, followed by europium cryptate-labeled anti-cAMP antibody). Plates were then incubated at room temperature for 1 h prior to reading. Time-resolved fluorescence measurements were collected on PerkinElmer Envision™ or BMG Pherastar™ microplate readers. The compound N-(2-fluoro-4-(methylsulfonyl)phenyl)-6-(4-(3-isopropyl-1,2,4-oxadiazol-5-yl)piperidin-1-yl)-5-nitropyrimidin-4-amine was used as a positive control in each runset while assay buffer containing 0.5% DMSO was used as the negative control. The HTRF® assay was used to determine EC50 values for GPR119 agonists.

For experiment [1], the system named is Male 129SVE mice. Put plainly: In vivo incretin hormone GIP release (plasma total GIP, ELISA). Particulars: 3 or 30 mpk p.o., blood sample after 45 min. As to the method: Male 129SVE mice (approximately 8-week old) were fasted for 18 h and randomly grouped (n=6) to receive a GPR119 agonist (Compound 8) at 3 or 30 mpk dose (mg/kg body weight). Compound 8 were delivered orally via a gavage needle (p.o., volume at 4 mL/kg), and after 45 min a blood sample was collected to determine plasma total GIP levels. A separate group received vehicle (PET: 80% PEG:10% Ethanol:10% Tween80™) as control. Plasma GIP levels were determined using a Total GIP ELISA kit from Millipore.

Experiment [2] relates to Male 129SVE mice. Put plainly: Oral glucose tolerance test (oGTT) in male 129SVE mice. Particulars: for plasma glucose level, Mean: oGTT, in mg/dL (unit assumed). It counts as in vivo. As to the method:
Male 129SVE mice (approximately 8-week old) were fasted for 18 h and randomly grouped (n=6) to receive a GPR119 agonist (Compound 8) at 3, or 30 mg/kg (mg/kg body weight). The compound was delivered orally via a gavage needle (p.o., volume at 4 mL/kg) 30 minutes prior to glucose bolus (3 g/kg) (time=−30 min in FIG. 1), with a separate group receiving vehicle (20% hydroxypropyl-beta-cyclodextrin) as control. At time 0 min the glucose bolus was administered. Levels of blood glucose were assessed using a glucometer (One-Touch Ultra™, LifeScan) at time −30 minute (prior to compound administration), at 0 min (at time when glucose bolus was given), and at 20, 40, 60, 120 minutes post glucose bolus. The plasma glucose level (Table 1) and glucose excursion curve (FIG. 1) are shown. Glucose excursion AUC (area under the curve) reduction in compound treated animals relative to vehicle control is given in FIG. 2.

Take `CC(C)(C)OC(=O)N1CCC(CO[C@H]2CC[C@H](c3ccc(S(C)(=O)=O)cc3)CC2)CC1` [Compound 1, tert-Butyl 4-((4-(4-(Methylsulfonyl)phenyl)cyclohexyloxy)methyl)piperidine-1-carboxylate]: on hGPR119, the EC50 is 16 nM.

For the compound `CCc1cnc(N2CCC(CO[C@H]3CC[C@H](c4ccc(S(C)(=O)=O)cc4F)CC3)CC2)nc1` [Compound 8, 5-Ethyl-2-(4-(((1r,4r)-4-(2-fluoro-4-(methylsulfonyl)phenyl)cyclohexyloxy)methyl)piperidin-1-yl)pyrimidine], the “effect on plasma total GIP release” value with Male 129SVE mice [1] is listed as “stimulates the release of GIP”. In the experiment with Male 129SVE mice [2] (129SVE mice, 3 or 30 mg/kg p.o., 30 min prior to glucose bolus (3 g/kg)), the “effect on blood glucose after glucose challenge” value is on record as “lowered blood glucose”. For the same compound, the “plasma glucose level, Mean” value amounted to 201.3 with Male 129SVE mice [2] (3 mpk p.o., 20 min post glucose bolus); 250.2 in the experiment with Male 129SVE mice [2] (3 mpk p.o., 40 min post glucose bolus); 262.8 in the experiment with Male 129SVE mice [2] (3 mpk p.o., 60 min post glucose bolus); 163.3 with Male 129SVE mice [2] (3 mpk p.o., 120 min post glucose bolus); 112.5 with Male 129SVE mice [2] (3 mpk p.o., time 0 min relative to glucose bolus); 88.7 in the experiment on Male 129SVE mice [2] (3 mpk p.o., time −30 min relative to glucose bolus (prior to compound administration)). For the same compound, the “plasma glucose level, Mean” value in the experiment on Male 129SVE mice [2] (30 mpk p.o., 20 min post glucose bolus) amounted to 163.5; in the experiment on Male 129SVE mice [2] (30 mpk p.o., 40 min post glucose bolus) it was 204.2; in the experiment with Male 129SVE mice [2] (30 mpk p.o., 60 min post glucose bolus), 193.2; with Male 129SVE mice [2] (30 mpk p.o., 120 min post glucose bolus) it was 107.5; in the experiment on Male 129SVE mice [2] (30 mpk p.o., time 0 min relative to glucose bolus), 96.0; with Male 129SVE mice [2] (30 mpk p.o., time −30 min relative to glucose bolus (prior to compound administration)) it was 72.2.

`CC(C)(F)c1noc(N2CCC(CO[C@H]3CC[C@H](c4ccc(S(C)(=O)=O)cc4F)CC3)CC2)n1` [Compound 16, 5-(4-(((1r,4r)-4-(2-Fluoro-4-(methylsulfonyl)phenyl)cyclohexyloxy)methyl)piperidin-1-yl)-3-(2-fluoropropan-2-yl)-1,2,4-oxadiazole] registered an EC50 at hGPR119 of 38 nM.

`CC(C)(C)OC(=O)N1CCC(COC2CC=C(c3ccncc3C#N)CC2)CC1` (stereo not shown) [Compound 50, tert-Butyl 4-((4-(3-Cyanopyridin-4-yl)cyclohex-3-enyloxy)methyl)piperidine-1-carboxylate] showed an EC50 on hGPR119 of 38 nM.

With `CC(C)OC(=O)N1CCC(CO[C@H]2CC[C@H](c3ccc(S(C)(=O)=O)cc3)CC2)CC1` [Compound 38, Isopropyl 4-((4-(4-(Methylsulfonyl)phenyl)cyclohexyloxy)methyl)piperidine-1-carboxylate], the EC50 at hGPR119 is 57 nM.

The compound `CC(C)(C)OC(=O)N1CCC(CO[C@H]2CC[C@H](c3ccncc3F)CC2)CC1` [Compound 56, tert-Butyl 4-(((1r,4r)-4-(3-Fluoropyridin-4-yl)cyclohexyloxy)methyl)piperidine-1-carboxylate] showed an EC50 on hGPR119 of 63 nM.

On hGPR119, `Cc1nc(S(C)(=O)=O)ccc1[C@H]1CC[C@H](OCC2CCN(c3ncc(C(F)(F)F)cn3)CC2)CC1` [Compound 31, 2-(4-(((1r,4r)-4-(2-Methyl-6-(methylsulfonyl)pyridin-3-yl)cyclohexyloxy)methyl)piperidin-1-yl)-5-(trifluoromethyl)pyrimidine] returned an EC50 of 42 nM.

As to `CSc1ccc([C@H]2CC[C@H](OCC3CCN(C(=O)OC(C)(C)C)CC3)CC2)cc1` [Compound 41, tert-Butyl 4-((4-(4-(Methylthio)phenyl)cyclohexyloxy)methyl)piperidine-1-carboxylate], a half-maximal effect on hGPR119 (EC50) was put at 505 nM.

In turn, `CC(C)(C)OC(=O)N1CCC(CO[C@H]2CC[C@H](c3ccc(S(C)(=O)=O)cc3F)CC2)CC1` [Compound 42, tert-Butyl 4-((4-(2-Fluoro-4-(methylsulfonyl)phenyl)cyclohexyloxy)methyl)piperidine-1-carboxylate] came in with an EC50 at hGPR119 of 6.4 nM. Against the preceding compound, the EC50 is about 79-fold lower.

In the case of `CS(=O)(=O)c1ccc([C@H]2CC[C@H](OCC3CCN(Cc4nc(C(F)(F)F)no4)CC3)CC2)c(F)c1` [Compound 60, 5-((4-(((1r,4r)-4-(2-Fluoro-4-(methylsulfonyl)phenyl)cyclohexyloxy)methyl)piperidin-1-yl)methyl)-3-(trifluoromethyl)-1,2,4-oxadiazole], at hGPR119, the EC50 is 200 nM.

On to `CS(=O)(=O)c1ccc([C@H]2CC[C@H](OCC3CCN(c4ncc(C(F)(F)F)cn4)CC3)CC2)nc1` [Compound 18], for which the EC50 at hGPR119 came to 134 nM. The EC50 values of the last two compounds are within 1.5-fold of each other.

Compound `CC(C)(C)OC(=O)N1CCC(CO[C@H]2CC[C@@H](c3cnc(S(C)(=O)=O)cn3)CC2)CC1` [Compound 12, tert-Butyl 4-((-4-(5-(Methylsulfonyl)pyrazin-2-yl)cyclohexyloxy)methyl)piperidine-1-carboxylate] registered an EC50 on hGPR119 of 707 nM.

Take `CC(C)(C)OC(=O)N1CCC(CO[C@H]2CC[C@H](c3ccncc3C#N)CC2)CC1` [Compound 49, tert-Butyl 4-(((1r,4r)-4-(3-Cyanopyridin-4-yl)cyclohexyloxy)methyl)piperidine-1-carboxylate]: on hGPR119, the EC50 was determined as 1030 nM. The EC50 values of the last two compounds are within 1.5-fold of each other.

On to `CC(C)c1noc(N2CCC(COC3CC=C(c4ccc(S(C)(=O)=O)cc4)CC3)CC2)n1` (stereo not shown) [Compound 23, 3-Isopropyl-5-(4-((4-(4-(Methylsulfonyl)phenyl)cyclohex-3-enyloxy)methyl)piperidin-1-yl)-1,2,4-oxadiazole], for which the EC50 on hGPR119 was 15 nM.

Regarding `CC(C)OC(=O)N1CCC(CO[C@H]2CC[C@H](c3ccc(S(C)(=O)=O)cc3F)CC2)CC1` [Compound 11, Isopropyl 4-(((1r,4r)-4-(2-Fluoro-4-(methylsulfonyl)phenyl)cyclohexyloxy)methyl)piperidine-1-carboxylate], at hGPR119, the 50% effective concentration (EC50) stood at 21 nM.
